Laboratory results published in patent US10227331B2 (priority 2015, dated 2019).

Tests used:
[1] = molecular target: IMP-1 (Serratia marcescens, UniProt P52699); assay: biochemical; format: biochemical; settings: CCF2-FA substrate, 2 hours at 25° C; read-out: IMP-1 IC50
How it was run: (§1)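 Two-hour, 25° C incubation of enzyme with inhibitor and CCF2-FA (7-hydroxycoumarin–cephalosporin–fluorescein). Fluorescence read-out; IC50 via 4-parameter fit.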

[2] = molecular target: NDM-1 (Klebsiella pneumoniae, UniProt C7C422); assay: biochemical; format: biochemical; settings: CCF2-FA substrate, 2 hours at 25° C; read-out: NDM-1 IC50
How it was run: as §1

[3] = molecular target: VIM-1 (Pseudomonas aeruginosa (strain ATCC 15692 / DSM 22644 / CIP 104116 / JCM 14847 / LMG 12228 / 1C / PRS 101 / PAO1), UniProt A0A0F7KYQ8); assay: biochemical; settings: CCF2-FA substrate, 2 hours at 25° C
How it was run: as §1

[4] = tested on: Escherichia coli expressing NDM-1 (CLB30005, CLB30016); format: cell-based; settings: with imipenem 1 μg/ml; 95% inhibition of bacterial growth
How it was run: (§2)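 Colonies from overnight 35 °C blood-agar cultures were suspended in saline, diluted 1:100 into 1.1× CAMHB and exposed to test compound with or without imipenem at 1 μg/ml. After 22–24 h at 35 °C, absorbance was read to find the concentration restoring imipenem susceptibility.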

[5] = tested on: Klebsiella pneumoniae expressing VIM-1 (IHMA599644); format: cell-based; settings: with imipenem 1 μg/ml; 95% inhibition of bacterial growth
How it was run: as §2

[6] = tested on: Serratia marcescens expressing IMP-1 (CL5741); format: cell-based; settings: with imipenem 1 μg/ml; 95% inhibition of bacterial growth
How it was run: as §2

[7] = tested on: P. aeruginosa expressing IMP-1, efflux+ (MB9798); format: cell-based, Pseudomonas aeruginosa; settings: for P. aeruginosa expressing IMP-1, efflux+ (MB9798) MITC95: imipenem at 2 μg/mL, in the presence of a class A, C, D serine β-lactamase inhibitor closely related to relebactam; for Efflux ratio: ratio MITC95 PA_9798/MITC95 PA_9799
Excerpt: (§3) The strain background is Pseudomonas aeruginosa PAO1.

[8] = tested on: P. aeruginosa expressing IMP-1, efflux− (MB9799); assay: Efflux: concentration of MBL inhibitor which restores susceptibility to imipenem; format: cell-based, Pseudomonas aeruginosa; settings: imipenem at 2 μg/mL, in the presence of a class A, C, D serine β-lactamase inhibitor closely related to relebactam
Excerpt: as §3

NDM-1, sequence (C7C422 whole entry, looked up, species assumed): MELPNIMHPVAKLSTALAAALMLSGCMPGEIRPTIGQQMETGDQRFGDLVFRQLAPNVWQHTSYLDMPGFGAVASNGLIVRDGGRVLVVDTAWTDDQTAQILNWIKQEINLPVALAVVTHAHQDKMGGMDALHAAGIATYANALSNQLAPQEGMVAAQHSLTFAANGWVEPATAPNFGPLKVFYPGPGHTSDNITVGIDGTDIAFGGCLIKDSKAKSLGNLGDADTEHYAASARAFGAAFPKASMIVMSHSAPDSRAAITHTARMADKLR
IMP-1, sequence (P52699 whole entry, looked up, species assumed): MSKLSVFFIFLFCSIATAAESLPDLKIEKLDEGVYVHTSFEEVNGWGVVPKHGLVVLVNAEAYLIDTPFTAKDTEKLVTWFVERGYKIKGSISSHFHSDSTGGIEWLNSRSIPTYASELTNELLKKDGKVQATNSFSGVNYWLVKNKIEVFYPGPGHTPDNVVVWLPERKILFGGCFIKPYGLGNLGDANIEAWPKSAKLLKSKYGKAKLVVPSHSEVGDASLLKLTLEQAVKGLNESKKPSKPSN

N#CC1(c2ccc(-c3ccc(S(=O)(=O)CCN)c(S(N)(=O)=O)c3-c3nnn[nH]3)cn2)CNC1.O=C(O)C(F)(F)F [Example 132, 2-((4-(6-(3-cyanoazetidin-3-yl)pyridin-3-yl)-2-sulfamoyl-3-(1H-tetrazol-5-yl)phenyl)sulfonyl)ethanaminium 2,2,2-trifluoroacetate]
IC50 [1]: 1.49 nM | IC50 [2]: 3.5 nM | IC50 [3]: 1.55 nM | Escherichia coli expressing NDM-1 (CLB30016) MITC95 [4]: 0.7813 µM | Klebsiella pneumoniae expressing VIM-1 (IHMA599644) MITC95 [5]: 3.125 µM | Serratia marcescens expressing IMP-1 (CL5741) MITC95 [6]: 1.563 µM | P. aeruginosa expressing IMP-1, efflux+ (MB9798) MITC95 [7]: 6.25 µM | Efflux ratio [7]: 4.00 | P. aeruginosa expressing IMP-1, efflux− (MB9799) MITC95 [8]: 1.563 µM

Cc1nnc2ccc(-c3ccc(S(=O)(=O)CCN)c(S(N)(=O)=O)c3-c3nnn[nH]3)cn12.O=C(O)C(F)(F)F [Example 133, 2-((4-(3-methyl-[1,2,4]triazolo[4,3-a]pyridin-6-yl)-2-sulfamoyl-3-(1H-tetrazol-5-yl)phenyl)sulfonyl)ethanaminium 2,2,2-trifluoroacetate]
IC50 [1]: 29.4 nM | IC50 [2]: 15.6 nM | IC50 [3]: 0.968 nM | Escherichia coli expressing NDM-1 (CLB30016) MITC95 [4]: 6.25 µM | Klebsiella pneumoniae expressing VIM-1 (IHMA599644) MITC95 [5]: 6.25 µM | Serratia marcescens expressing IMP-1 (CL5741) MITC95 [6]: 6.25 µM | P. aeruginosa expressing IMP-1, efflux+ (MB9798) MITC95 [7]: 200 µM | Efflux ratio [7]: 64.00 | P. aeruginosa expressing IMP-1, efflux− (MB9799) MITC95 [8]: 3.125 µM

NCCS(=O)(=O)c1ccc(-c2cnc3cccnc3c2)c(-c2nnn[nH]2)c1S(N)(=O)=O.O=C(O)C(F)(F)F [Example 134, 2-((4-(1,5-naphthyridin-3-yl)-2-sulfamoyl-3-(1H-tetrazol-5-yl)phenyl)sulfonyl)ethanaminium 2,2,2-trifluoroacetate]
IC50 [1]: 2.47 nM | IC50 [2]: 2.65 nM | IC50 [3]: 0.991 nM | Escherichia coli expressing NDM-1 (CLB30016) MITC95 [4]: 6.25 µM | Klebsiella pneumoniae expressing VIM-1 (IHMA599644) MITC95 [5]: 6.25 µM | Serratia marcescens expressing IMP-1 (CL5741) MITC95 [6]: 3.125 µM | P. aeruginosa expressing IMP-1, efflux+ (MB9798) MITC95 [7]: 25 µM | Efflux ratio [7]: 15.99 | P. aeruginosa expressing IMP-1, efflux− (MB9799) MITC95 [8]: 1.563 µM

CC(=O)Nc1ccc(-c2ccc(S(=O)(=O)CCN)c(S(N)(=O)=O)c2-c2nnn[nH]2)cn1.O=C(O)C(F)(F)F [Example 135, 2-((4-(6-acetamidopyridin-3-yl)-2-sulfamoyl-3-(1H-tetrazol-5-yl)phenyl)sulfonyl)ethanaminium 2,2,2-trifluoroacetate]
IC50 [1]: 1.65 nM | IC50 [2]: 0.265 nM | IC50 [3]: 1.22 nM | Escherichia coli expressing NDM-1 (CLB30016) MITC95 [4]: 0.7813 µM | Klebsiella pneumoniae expressing VIM-1 (IHMA599644) MITC95 [5]: 6.25 µM | Serratia marcescens expressing IMP-1 (CL5741) MITC95 [6]: 3.125 µM | P. aeruginosa expressing IMP-1, efflux+ (MB9798) MITC95 [7]: 3.125 µM | Efflux ratio [7]: 2.00 | P. aeruginosa expressing IMP-1, efflux− (MB9799) MITC95 [8]: 1.563 µM

NCCS(=O)(=O)c1ccc(-c2c[nH]c3nccnc23)c(-c2nnn[nH]2)c1S(N)(=O)=O.O=C(O)C(F)(F)F [Example 136, 2-((4-(5H-pyrrolo[2,3-b]pyrazin-7-yl)-2-sulfamoyl-3-(1H-tetrazol-5-yl)phenyl)sulfonyl)ethanaminium 2,2,2-trifluoroacetate]
IC50 [1]: 1.72 nM | IC50 [2]: 2.14 nM | IC50 [3]: 1.19 nM | Escherichia coli expressing NDM-1 (CLB30016) MITC95 [4]: 1.563 µM | Klebsiella pneumoniae expressing VIM-1 (IHMA599644) MITC95 [5]: 3.125 µM | Serratia marcescens expressing IMP-1 (CL5741) MITC95 [6]: 1.563 µM | P. aeruginosa expressing IMP-1, efflux+ (MB9798) MITC95 [7]: 12.5 µM | Efflux ratio [7]: 16.00 | P. aeruginosa expressing IMP-1, efflux− (MB9799) MITC95 [8]: 0.7813 µM

NCCS(=O)(=O)c1ccc(-c2cnc(O)nc2)c(-c2nnn[nH]2)c1S(N)(=O)=O.O=C(O)C(F)(F)F [Example 137, 2-((4-(2-hydroxypyrimidin-5-yl)-2-sulfamoyl-3-(1H-tetrazol-5-yl)phenyl)sulfonyl)ethanaminium 2,2,2-trifluoroacetate]
IC50 [1]: 32.6 nM | IC50 [2]: 16.8 nM | IC50 [3]: 23.5 nM | Escherichia coli expressing NDM-1 (CLB30016) MITC95 [4]: 0.7813 µM | Klebsiella pneumoniae expressing VIM-1 (IHMA599644) MITC95 [5]: 3.125 µM | Serratia marcescens expressing IMP-1 (CL5741) MITC95 [6]: 1.563 µM | P. aeruginosa expressing IMP-1, efflux+ (MB9798) MITC95 [7]: 25 µM | Efflux ratio [7]: 15.99 | P. aeruginosa expressing IMP-1, efflux− (MB9799) MITC95 [8]: 1.563 µM

NCCS(=O)(=O)c1ccc(-c2ccnc3ccccc23)c(-c2nnn[nH]2)c1S(N)(=O)=O.O=C(O)C(F)(F)F [Example 138, 2-((4-(quinolin-4-yl)-2-sulfamoyl-3-(1H-tetrazol-5-yl)phenyl)sulfonyl)ethanaminium 2,2,2-trifluoroacetate]
IC50 [1]: 1.28 nM | IC50 [2]: 0.8 nM | IC50 [3]: 0.41 nM | Escherichia coli expressing NDM-1 (CLB30016) MITC95 [4]: 1.563 µM | Klebsiella pneumoniae expressing VIM-1 (IHMA599644) MITC95 [5]: 6.25 µM | Serratia marcescens expressing IMP-1 (CL5741) MITC95 [6]: 3.125 µM | P. aeruginosa expressing IMP-1, efflux+ (MB9798) MITC95 [7]: 6.25 µM | Efflux ratio [7]: 4.00 | P. aeruginosa expressing IMP-1, efflux− (MB9799) MITC95 [8]: 1.563 µM

CNC(=O)c1ccc(-c2ccc(S(=O)(=O)CCN)c(S(N)(=O)=O)c2-c2nnn[nH]2)cn1.O=C(O)C(F)(F)F [Example 139, 2-((4-(6-(methylcarbamoyl)pyridin-3-yl)-2-sulfamoyl-3-(1H-tetrazol-5-yl)phenyl)sulfonyl)ethanaminium 2,2,2-trifluoroacetate]
IC50 [1]: 3.32 nM | IC50 [2]: 3.96 nM | IC50 [3]: 2.04 nM | Escherichia coli expressing NDM-1 (CLB30016) MITC95 [4]: 1.563 µM | Klebsiella pneumoniae expressing VIM-1 (IHMA599644) MITC95 [5]: 6.25 µM | Serratia marcescens expressing IMP-1 (CL5741) MITC95 [6]: 3.125 µM | P. aeruginosa expressing IMP-1, efflux+ (MB9798) MITC95 [7]: 12.5 µM | Efflux ratio [7]: 8.00 | P. aeruginosa expressing IMP-1, efflux− (MB9799) MITC95 [8]: 1.563 µM

NCCS(=O)(=O)c1ccc(-c2ccc3c(c2)C(=O)NC3)c(-c2nnn[nH]2)c1S(N)(=O)=O.O=C(O)C(F)(F)F [Example 140, 2-((4-(3-oxoisoindolin-5-yl)-2-sulfamoyl-3-(1H-tetrazol-5-yl)phenyl)sulfonyl)ethanaminium 2,2,2-trifluoroacetate]
IC50 [1]: 0.488 nM | IC50 [2]: 0.844 nM | IC50 [3]: 0.223 nM | Escherichia coli expressing NDM-1 (CLB30016) MITC95 [4]: 1.563 µM | Klebsiella pneumoniae expressing VIM-1 (IHMA599644) MITC95 [5]: 1.563 µM | Serratia marcescens expressing IMP-1 (CL5741) MITC95 [6]: 1.563 µM | P. aeruginosa expressing IMP-1, efflux+ (MB9798) MITC95 [7]: 3.125 µM | Efflux ratio [7]: 4.00 | P. aeruginosa expressing IMP-1, efflux− (MB9799) MITC95 [8]: 0.7813 µM

NCCS(=O)(=O)c1ccc(-c2ccnc(N)c2)c(-c2nnn[nH]2)c1S(N)(=O)=O.O=C(O)C(F)(F)F [Example 141, 2-((4-(2-aminopyridin-4-yl)-2-sulfamoyl-3-(1H-tetrazol-5-yl)phenyl)sulfonyl)ethanaminium 2,2,2-trifluoroacetate]
IC50 [1]: 4.89 nM | IC50 [2]: 4.32 nM | IC50 [3]: 1.01 nM | Escherichia coli expressing NDM-1 (CLB30016) MITC95 [4]: 0.25 µM | Klebsiella pneumoniae expressing VIM-1 (IHMA599644) MITC95 [5]: 1.781 µM | Serratia marcescens expressing IMP-1 (CL5741) MITC95 [6]: 0.8906 µM | P. aeruginosa expressing IMP-1, efflux+ (MB9798) MITC95 [7]: 6.25 µM | Efflux ratio [7]: 7.02 | P. aeruginosa expressing IMP-1, efflux− (MB9799) MITC95 [8]: 0.8906 µM

NCCS(=O)(=O)c1ccc(-c2ccnc3[nH]ccc23)c(-c2nnn[nH]2)c1S(N)(=O)=O.O=C(O)C(F)(F)F [Example 142, 2-((4-(1H-pyrrolo[2,3-b]pyridin-4-yl)-2-sulfamoyl-3-(1H-tetrazol-5-yl)phenyl)sulfonyl)ethanaminium 2,2,2-trifluoroacetate]
IC50 [1]: 0.517 nM | IC50 [2]: 0.518 nM | IC50 [3]: 0.153 nM | Escherichia coli expressing NDM-1 (CLB30016) MITC95 [4]: 1.563 µM | Klebsiella pneumoniae expressing VIM-1 (IHMA599644) MITC95 [5]: 3.125 µM | Serratia marcescens expressing IMP-1 (CL5741) MITC95 [6]: 1.563 µM | P. aeruginosa expressing IMP-1, efflux+ (MB9798) MITC95 [7]: 3.125 µM | Efflux ratio [7]: 4.00 | P. aeruginosa expressing IMP-1, efflux− (MB9799) MITC95 [8]: 0.7813 µM

NCCS(=O)(=O)c1ccc(-c2cncc(CO)c2)c(-c2nnn[nH]2)c1S(N)(=O)=O.O=C(O)C(F)(F)F [Example 143, 2-((4-(5-(hydroxymethyl)pyridin-3-yl)-2-sulfamoyl-3-(1H-tetrazol-5-yl)phenyl)sulfonyl)ethanaminium 2,2,2-trifluoroacetate]
IC50 [1]: 8.83 nM | IC50 [2]: 11.2 nM | IC50 [3]: 2.02 nM | Escherichia coli expressing NDM-1 (CLB30016) MITC95 [4]: 1.563 µM | Klebsiella pneumoniae expressing VIM-1 (IHMA599644) MITC95 [5]: 3.125 µM | Serratia marcescens expressing IMP-1 (CL5741) MITC95 [6]: 3.125 µM | P. aeruginosa expressing IMP-1, efflux+ (MB9798) MITC95 [7]: 12.5 µM | Efflux ratio [7]: 8.00 | P. aeruginosa expressing IMP-1, efflux− (MB9799) MITC95 [8]: 1.563 µM
